Where two headings read alike, the source gives them in different places.
Experiments:
[1] = system: B-cells isolated from individuals with autoimmune disease; assay: MTT cell viability, sphingomyelin enhancement of chemotherapy on B-cells (Example 5); format: cell-based, human
Description: (§1) Sphingomyelin enhancement of chemotherapy is evaluated by measuring its effect on 5-fluorouracil or doxorubicin (DOX) treatment of B-cells isolated from individuals with autoimmune disease and grown in culture. Cell viability is measured using the dye MTT (3-(4,5-dimethylthiazol-2-yl)-2,5-diphenyl tetrazolium bromide) in a 24-well chamber format. See Mosmann, T., J. Immunol. Methods, 65:55-63 (1983). B-cells are maintained in RPMI media supplemented with 10% fetal calf serum. Human umbilical cord venous endothelial cells (HUVEC) from pooled donors (Clonetics/BioWhittaker, San Diego, Calif.) are used as controls. Cells (10^4/well) are plated in the presence of varying concentrations of drug and sphingomyelin and grown in a humidified incubator. As an additional control, egg yolk phosphatidylcholine (PC) (Sigma, St. Louis, Mo.) is added to the cells instead of sphingomyelin. Drugs and lipids are added to HUVEC cells 24 hours after plating, but otherwise are treated the same. After four days, the media is replaced with media containing 0.5 mg/ml MTT and incubated two to four hours at 37° C. An equal volume of 0.04 N HCl in isopropanol is added, and the absorbance at 570 nm is measured. The IC50 values, defined as the concentration of drug necessary to reduce cell viability by 50%, from three to seven independent experiments are averaged and compared using ANOVA.

[2] = system: Primary Sjogren's Syndrome (pSS); assay: Therapy of primary Sjogren's syndrome with rituximab combined with sphingomyelin (Example 4); format: in vivo, human
Description: They then receive a course of rituximab (Rituxan, Genentech) at 600 mg infused over 6 hours every other week for 3 doses, combined with weekly infusions of sphingomyelin at doses of 400 mg for 6 weeks. During this therapy, only 15 mg prednisolone is continued as a maintenance therapy. After the first rituximab infusion, their circulating B-cells are measured to be depleted by 90%, which continues for about 8 months. Their main subjective symptoms of dry mouth and eyes show improvement, as well as their parotid gland reduction is noted, and also an improvement in their dry cough and purpura. An improvement of the objective parameters of dry eyes and dry mouth is also observed, and this improvement is maintained for at least 3 months after this therapy course. The combination of sphingomyelin with apoptosis-inducing agent is shown to be synergistic for treatment of pSS.

rheumatoid arthritis [3] = assay: Therapy of rheumatoid arthritis with sphingomyelin, patient one (Example 1); format: in vivo, human
Description: Various forms of sphingomyelin can be obtained in powder form from Sigma Chemicals (St. Louis, Mo.). Mix 1 g of sphingomyelin powder with 9.5 ml of sterile saline or phosphate buffered saline (PBS) and QS to 10 ml. Sonicate the resulting suspension in a water bath at 80-90° C. for 1 hour. The suspension should be administered within one hour of sonication and should be approximately room temperature (25-30° C.). The suspension can be stored at 4° C.; however, it should be re-sonicated for 30 minutes in a water bath at 80-90° C. before administration. […] They have a history of rheumatoid arthritis (RA) that presented about 5 years ago, and has undergone numerous treatments with corticosteroids, cyclophosphamide, and methotrexate, with responses of reduced durations and then relapses. They now present to their rheumatologist with active RA as judged by the presence of 5 tender and 4 swollen joints (out of 44 examined), morning stiffness for more than 45 minutes, an elevated erythrocyte sedimentation rate (ESR) of 40 mm/h (Westergren method), and an elevated C-reactive protein (CRP) blood level of 80 mg/L, as well as increased levels of rheumatoid factor (RF) of IgM, IgG, and IgA isotypes. All other laboratory tests, except circulating red blood cells (mild anemia), are within the normal range. They have been taking a nonsteroidal anti-inflammatory drug (NSAID; ibuprofen), 20 mg/day of prednisolone, and doses of cyclophosphamide i.v. (750 mg). The patient is allowed to continue on these medications, and is also given i.v. infusions of sphingomyelin (prepared as described above) in phosphate-buffered sterile saline and QS twice weekly at doses of 400 mg, continuing for 3 weeks. […] The patient is considered to have improved upon adding sphingomyelin i.v. therapy to their prior medications, to which they relapsed. Subsequently, they have their prednisolone maintenance therapy tapered to 5 mg daily with 200 mg sphingomyelin given 3 times weekly for 8 weeks, and is able to function as before without any deterioration of their condition, with increase in their physical activities and general reduction in joint pain and swelling.

rheumatoid arthritis [4] = assay: Therapy of rheumatoid arthritis with adalimumab combined with sphingomyelin (Example 3); format: in vivo, human
Description: A person with 3 healthy children presents with a history of rheumatoid arthritis (RA) for 9 years, and a prior therapy history of methotrexate, leflunomide, prednisolone, sometimes in combination. They continue on their methotrexate (10 mg) and prednisolone (10 mg) daily doses, and is now given the TNF antagonist, adalimumab (Humira, Abbott Laboratories) subcutaneously at 40 mg every other week, combined with weekly infusions of sphingomyelin at a dose of 400 mg. This therapy is continued for 12 weeks, and they are evaluated for response every 4 weeks after completion of their course of therapy by ACR 20%, 50% and 70% scoring, and EULAR responses.

[5] = system: progressive rheumatoid arthritis; format: in vivo, human
From the text: A person, with severe progressive rheumatoid arthritis of the finger joints, wrists, and elbows, has failed therapy with methotrexate, and obtains only minor relief when placed on Enbrel therapy.

[6] = system: Systemic Lupus Erythematosus (SLE); assay: Therapy of systemic lupus erythematosus with sphingomyelin, epratuzumab and prednisolone (Example 2); format: in vivo, human
From the text: patient two is a person with two healthy children, and with a history of SLE for at least 8 years. They have received prior cyclophosphamide, azathioprine, and corticosteroid treatments, with recurrent activity flares resulting in increasing disability. They have had evidence of myelosuppression, with lymphopenia, resulting in tapering of their medications. Prior to receiving the current experimental therapy, they are confirmed to have a diagnosis of SLE according to the American College of Rheumatology revised criteria, and moderately active disease (a score of 10 for total British Isles Lupus Assessment Group (BILAG) disease activity) at study entry. Their current medication of prednisolone, 15 mg/day, is continued, and they receive epratuzumab (anti-CD22 humanized monoclonal antibody) i.v. at 360 mg/m^2 once weekly every other week for a total of 4 infusions. Prior to each infusion, they are medicated with acetaminophen (Tylenol) and antihistamine (Benadryl). They are also given an infusion of 300 mg sphingomyelin twice weekly for 8 weeks. Two and 6 weeks after completion of this therapy, they are evaluated, and it is decided that their prednisolone doses of 15 mg/day can be tapered to 10 mg/day, because of initial evidence of improvement of their BILAG scores in 3 of the 8 body systems. Four weeks later, the SLE panel of tests (autoantibodies, C3, C-reactive protein, erythrocyte sedimentation rate), and physical examination indicate progressive improvement, with less fatigue, lethargy, malaise, anorexia, reduction of malar erythemia, and reduction of arthritis. They are considered to have about a 40% improvement of their condition as a result of the investigational therapy.

[7] = system: chronic idiopathic thrombocytopenia purpura; assay: Treatment of a patient with chronic idiopathic thrombocytopenia purpura (Example 6); format: in vivo, human
Description: A person with chronic idiopathic thrombocytopenia purpura has been treated with gamma globulins and high-dose dexamethasone, but the disease progresses. They undergo splenectomy, which fails to stabilize the disease. Their platelet count falls to less than 20,000/microliter, and hemorrhagic events increase in frequency. The patient is then treated with epratuzumab, 480 mg intravenously each week, plus 400 mg/wk of sphingomyelin, for a period of six weeks. Four weeks after the last dose of epratuzumab and sphingomyelin, platelet number is increased by 300%, and the hemorrhagic events disappear.

myasthenia gravis = assay: Treatment of a patient with myasthenia gravis, epratuzumab plus sphingomyelin (Example 8); format: in vivo, human
Description: A person has failed all conventional therapy for myasthenia gravis, and is admitted to a neurological intensive therapy unit. The patient is stabilized by plasma exchange, and is given intravenous immunoglobulin to reduce the titer of anti-acetylcholine receptor antibody. The patient remains bedridden, and is then treated with epratuzumab, 600 mg intravenously each week, plus 400 mg/wk of sphingomyelin, for a period of six weeks. […] Two months after the last treatment the patient is mobile, and is released from the hospital.

[8] = system: Human umbilical cord venous endothelial cells (HUVEC); assay: MTT cell viability, control HUVEC cells (Example 5); format: cell-based
Description: as §1

[9] = B-cells, MTT after four days, from IC50 values of drug

phosphatidylcholine [PC, reference compound]
enhancement of chemosensitivity (5FU, DOX) ([1]; lipid control added to the cells instead of sphingomyelin): does not elicit a similar effect

rituximab: Rituximab (Rituxan, anti-CD20) antibody [reference compound]
depletion of circulating B-cells ([2]; after the first rituximab infusion (600 mg), combined with weekly sphingomyelin 400 mg): 90%
duration of circulating B-cell depletion ([2]; rituximab 600 mg every other week x3 + sphingomyelin 400 mg weekly for 6 weeks): about 8 months

sphingomyelin
ESR, CRP and RF factor levels above the normal range (rheumatoid arthritis [3]; 4 and 6 months after onset, therapy of prednisolone, NSAID and sphingomyelin repeated at 3 months): about 20%
reduction of joint stiffness and swelling compared to baseline (rheumatoid arthritis [3]; 4 and 6 months after onset, therapy repeated at 3 months): about 50%
improvement in the ACR20 score (rheumatoid arthritis [3]; 4 and 6 weeks after sphingomyelin 400 mg i.v. twice weekly for 3 weeks, added to ibuprofen, prednisolone, cyclophosphamide): 20%
improvement in the elevated CRP, RF and ESR levels (rheumatoid arthritis [3]; 4 and 6 weeks after sphingomyelin 400 mg i.v. twice weekly for 3 weeks, added to prior medications): about 50%
joint stiffness in the morning (rheumatoid arthritis [3]; 4 and 6 weeks later, baseline more than 45 minutes): less than 15 minutes
combination effect with standard anti-rheumatoid therapeutic agents (rheumatoid arthritis [3]; compared with either sphingomyelin or standard agents alone): more than additive effect
overall response (rheumatoid arthritis [4]; 6-month evaluation, anti-TNF therapy combined with sphingomyelin): good response
ACR response (rheumatoid arthritis [4]; end of 12-week course, sphingomyelin 400 mg weekly + adalimumab 40 mg s.c. every other week + methotrexate, prednisolone): ACR50 improvement
EULAR response (rheumatoid arthritis [4]; end of 12-week course, sphingomyelin + adalimumab + methotrexate, prednisolone): moderate EURAR response
tolerability of therapy (rheumatoid arthritis [4]; sphingomyelin 400 mg weekly + adalimumab, 12 weeks): tolerated well
improvement in measures of disease activity ([5]; 6 months after the second therapy with veltuzumab and sphingomyelin): 70%
improvement in measures of disease activity ([5]; after 3 weeks, veltuzumab 80 mg i.v. weekly + sphingomyelin 400 mg/wk for eight weeks): 30%
duration for which the improvement is maintained ([5]; after first course of veltuzumab + sphingomyelin): 6 months
normal B-cells in the blood ([5]; veltuzumab + sphingomyelin): significantly reduced
improvement of BILAG scores, number of body systems ([6]; 2 and 6 weeks after sphingomyelin 300 mg twice weekly for 8 weeks + epratuzumab 360 mg/m^2 x4 + prednisolone 15 mg/day): 3 of the 8 body systems
improvement of condition ([6]; four weeks later, sphingomyelin + epratuzumab + prednisolone): ~40%
combination effect with prednisolone and epratuzumab ([6]; more effective than either agent alone): synergistic effect
hemorrhagic events ([7]; four weeks after last dose of epratuzumab and sphingomyelin): disappear
increase of platelet number ([7]; four weeks after last dose, epratuzumab 480 mg i.v. weekly + sphingomyelin 400 mg/wk for six weeks): 300%
disease status ([7]; three months after the last treatment): full remission
duration of improvement after therapy course ([2]; rituximab + sphingomyelin): at least 3 months
objective parameters of dry eyes and dry mouth ([2]; rituximab + sphingomyelin 400 mg weekly for 6 weeks, prednisolone 15 mg maintenance): improvement
combination effect with apoptosis-inducing agent ([2]; sphingomyelin with rituximab): synergistic
increase of 5FU sensitivity [1, 9]: 140%
increase of DOX sensitivity [1, 9]: 340%
drop in B-lymphocytes (myasthenia gravis; one week after last treatment, epratuzumab 600 mg i.v. weekly + sphingomyelin 400 mg/wk for six weeks): 50%
titer of the anti-acetylcholine (receptor antibody) (myasthenia gravis; one week after last treatment, epratuzumab + sphingomyelin): significant drop
clinical status (myasthenia gravis; two months after the last treatment): mobile
sensitization to 5FU or DOX therapy [8]: does not sensitize

veltuzumab: anti-CD20 humanized Mab
human anti-veltuzumab antibodies ([5]; human, in vivo): No human anti-veltuzumab antibodies are observed
